The values below come from US11827628B2, “Compositions and methods for inhibition of the JAK pathway” (Rigel Pharmaceuticals, Inc., priority 2005, dated 2023).

Type in all cases: cell-based
In assay [1] the test system is IL-4 stimulated expression of CD23 in human Ramos B cells (JAK-1 and JAK-3). Kind of assay: Assay for Ramos B-Cell Line Stimulated with IL-4 (CD23 upregulation, FACS). The conditions noted are these: read-out: IC50, Example 41. In a few lines:
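Human Ramos B cells (5×10^4 per point, RPMI 5% serum) pre-incubated 1 h at 37 °C with compound or DMSO, then stimulated with IL-4 at 50 units/mL final for 20-24 h. CD23 upregulation measured by anti-CD23-PE staining and flow cytometry; IC50 derived.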

Assay [2] deals with up-regulation of ICAM-1 (CD54) by IFNγ in U937 human monocytic cells. In words: U937 IFNγ ICAM1 FACS Assay. The conditions noted are these: ICAM-1 expression by FACS, read-out: IC50, Example 44. The text has this: The activity of the compounds of the invention may additionally be characterized by assaying the effect of the 2,4-substituted pyrimidinediamine compounds described herein on A549 lung epithelial cells and U937 cells. A549 lung epithelial cells and U937 cells up-regulate ICAM-1 (CD54) surface expression in response to a variety of different stimuli. Therefore, using ICAM-1 expression as readout, test compound effects on different signaling pathways can be assessed in the same cell type. Stimulation with IL-1β through the IL-1β receptor activates the TRAF6/NFκB pathway resulting in up-regulation of ICAM-1. IFNγ induces ICAM-1 up-regulation through activation of the JAK1/JAK2 pathway. The up-regulation of ICAM-1 can be quantified by flow cytometry across a compound dose curve and EC50, values are calculated.
U937 human monocytic cells up-regulate ICAM-1 (CD54) surface expression in response to a variety of different stimuli. Therefore, using ICAM-1 expression as readout, compound effects on different signaling pathways can be assessed in the same cell type. IFNγ up-regulates ICAM-1 through activation of the JAK/Stat pathway. In this example, the up-regulation of ICAM-1 by IFNγ was assessed.
The U937 human monocytic cell line was obtained from ATCC of Rockville Maryland, catalog number CRL-1593.2, and cultured in RPM1-1640 medium containing 10% (v/v) FCS. U937 cells were grown in 10% RPMI. The cells were then plated at a concentration of 100,000 cells per 160 μL in 96 well flat bottom plates. […] Then 4 μL of test compound was transferred to 76 μL of 10% RPMI resulting in a 10× solution (100 μM test compound, 5% DMSO). For control wells, 4 μL of DMSO was diluted into 76 μL 10% RPMI.
The assay was performed in duplicate with 8 points (8 3-fold dilution concentrations from […]) and with 4 wells of DMSO only (control wells) under stimulated conditions and 4 wells of DMSO only under unstimulated conditions.
The diluted compound plate was mixed 2× using a multimek (Beckman Coulter of Brea, California) and then 20 μL of the diluted compounds was transferred to the 96 well plate containing 160 μL of cells, which were then mixed again twice at low speeds. The cells and compounds were then pre-incubated for 30 minutes at 37° C. with 5% CO2.
The 10× stimulation mix was made by preparing a 100 ng/mL solution of human IFNγ in 10% RPMI. […] The cells were kept under conditions for stimulation for 18-24 hours at 37° C. with 5% CO2.
The cells were transferred to a 96 well round bottom plate for staining and then kept on ice for the duration of the staining procedure. Cells were spun down at 1000 rpm for 5 minutes at 4° C., following which the supernatant was removed. Following removal of the supernatant, 1 μL APC conjugated mouse anti-human ICAM-1 antibody was added per 100 μL FACS buffer. The cells were then incubated on ice in the dark for 30 minutes. Following incubation, […] of FACS buffer was added and the cells were centrifuged at 1000 rpm for 5 minutes at 4° C., following which the supernatant was removed. After removal of the supernatant, 200 μL of FACS buffer was added and the cells were resuspended. After suspension, the cells were centrifuged at 1000 rpm for 5 min at 4° C. Supernatant was then removed prior to resuspension of the cells in 150 μL FACS buffer.
Detection was performed using a BD LSR I System Flow Cytometer, purchased from BD Biosciences of San Jose, California The live cells were gated for live scatter and the geometric mean of ICAM-APC was measured (Becton-Dickinson CellQuest software version 3.3, Franklin Lakes, NJ). Both % live cells and ICAM-1 expression was analyzed. The assays for the test compounds were carried out in parallel with a control compound of known activity.
A general note: A flow cytometer gives signals particle by particle.

The test system of the next assay is Primary human T-cells. Kind of assay: Primary Human T-Cell Proliferation Assay Stimulated with IL-2 (CellTiter-Glo). To be noted: read-out: IC50, Example 42. Summed up:
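IC50 derived from CellTiter-Glo ATP signal after 72 hours of IL-2-driven proliferation at 37° C. Cells: primary human T-cells from blood, stimulated beforehand 3-4 days on anti-CD3/anti-CD28 with IL-2, then rested from IL-2 before compound exposure in duplicate; IL-2-free wells served as unstimulated control.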
(In general: In ATP-based viability assays light output follows the ATP content of the culture.)

Setting [3] is: Homo sapiens, Ramos, Ramos B-cell line stimulated with IL-4, CD23 expression by FACS.
Where [4] appears, read: Homo sapiens, U-937, U937 cells stimulated with IFNγ.
[5] abbreviates: Ramos B-cell line stimulated with IL-4, CD23 expression by FACS.
The mark [6] stands for this setting: U937 cells stimulated with IFNγ.
Where [7] appears, read: Ramos B cells stimulated with IL-4, CD23 expression by FACS.
The mark [8] stands for this setting: primary human T-cell proliferation stimulated with IL-2.
Setting [9] is: primary human T-cells stimulated with IL-2, proliferation.

Where a name gives a salt, the structure may show the parent alone. Read-outs that look alike come from different tables or passages of the source.

A word on the IC50: it is the concentration that gives 50% inhibition. `Cc1ccc(Nc2ncc(F)c(Nc3ccc(OCC#N)cc3)n2)cc1S(=O)(=O)NC(=O)C(C)C` [Compound I-39, N4-(4-Cyanomethyleneoxy)phenyl-5-fluoro-N2-(3-isobutyrylaminosulfonyl-4-methyl)phenyl-2,4-pyrimidinediamine sodium Salt]: the IC50 turned out to be 0.841 µM in assay [1] (Ramos B-cell line stimulated with IL-4, CD23 expression by FACS, sodium salt) and 9.32 µM in assay [2] (U937 cells stimulated with IFNγ, sodium Salt).
Regarding `N#CCOc1ccc(Nc2nc(Nc3cccc(S(N)(=O)=O)c3)ncc2F)cc1CO` [Compound I-50, N2-(3-Aminosulfonylphenyl)-N4-(4-cyanomethoxy-3-hydroxymethylphenyl)-5-fluoro-2,4-pyrimidinediamine], the half-maximal inhibitory concentration (IC50) in assay [1] (setting [3]) is 0.373 µM; in assay [2] (setting [4]), 25.1 µM.
For the compound `N#CCOc1ccc(Nc2nc(Nc3cccc(S(N)(=O)=O)c3)ncc2F)cc1-c1ccn(CC#N)n1` [Compound I-53, N2-(3-Aminosulfonylphenyl)-N4-[4-cyanomethoxy-3-(1-cyanomethylpyrazol-3-yl)phenyl]-5-fluoro-2,4-pyrimidinediamine], the IC50 in assay [1] (setting [3]) is 0.236 µM; in assay [2] (setting [4]), 12.2 µM.
As to `Cc1ccc(Nc2ncc(F)c(Nc3ccc(OCC#N)c(-c4ccn(CC#N)n4)c3)n2)cc1S(N)(=O)=O` [Compound I-54, N2-(3-Aminosulfonyl-4-methylphenyl]-N4-[4-cyanomethoxy-3-(1-cyanomethylpyrazol-3-yl)phenyl]-5-fluoro-2,4-pyrimidinediamine], the values for the IC50 in assay [1] (setting [3]) and in assay [2] (setting [4]) were 0.277 µM and 7.16 µM, respectively.
As for `CNS(=O)(=O)c1cc(Nc2ncc(F)c(Nc3ccc(OCc4ccccn4)cc3)n2)ccc1C` [Compound I-161, 5-Fluoro-N2-[3-(N-methylaminosulfony)-4-methylphenyl]-5-fluoro-N4-[4-(2-pyridinyl)methyleneoxyphenyl]-2,4-pyrimidinediamine], the IC50 is 0.314 µM in assay [1] (setting [5]) and 2.41 µM in assay [2] (setting [6]).
`CNS(=O)(=O)c1cc(Nc2ncc(F)c(Nc3ccc(OCc4cc(C)on4)c(C)c3)n2)ccc1C` [Compound I-239, 5-Fluoro-N2-[3-N-(methyl)aminosulfonyl-4-methylphenyl]-N4-[3-methyl-4-(5-methylisoxazol-3-yl)methyleneoxyphenyl]-2,4-pyrimidinediamine]: the figures for the IC50 in assay [1] (setting [5]) and in assay [2] (setting [6]) were 0.24 µM and 7.06 µM, respectively.
Consider `Cc1cc(COc2ccc(Nc3nc(Nc4cccc(S(=O)(=O)N(Cc5oc(=O)oc5C(C)(C)C)Cc5oc(=O)oc5C(C)(C)C)c4)ncc3F)cc2)no1` [Compound I-249, N2-{3-[N-N-Di-[(5-t-Butyl-1,3-dioxolene-2-one-4-yl)methylene]]aminosulfonylphenyl}-5-fluoro-N4-[4-(5-methylisoxazol-3-yl)methyleneoxyphenyl]-2,4-pyrimidinediamine], for which the IC50 in assay [1] (setting [5]) is 0.512 µM; in assay [2] (setting [6]) it was 11 µM.
For the compound `CCC(=O)NS(=O)(=O)c1cccc(Nc2ncc(F)c(Nc3ccc(OCc4nc(C)no4)cc3)n2)c1` [Compound I-264], the results for the IC50 in assay [1] (setting [5]) and in assay [2] (setting [6]) were 0.599 µM and 15 µM, respectively.
Take `Cc1ccc(Nc2ncc(F)c(Nc3ccc4c(c3)N(Cc3ccccn3)C(=O)CO4)n2)cc1S(N)(=O)=O` [Compound V-3, N2-(3-Aminosulphonyl-4-methylphenyl)-5-fluoro-N4-[3-oxo-4-(2-pyridylmethy)-benz[1,4]oxazin-6-yl]-2,4-pyrimidinediamine]: the IC50 is 0.664 µM in assay [1] (setting [7]) and 13.7 µM in assay [2] (setting [6]).
In the case of `CCC(=O)NCc1ccc(Nc2nc(Nc3ccc(C)c(S(N)(=O)=O)c3)ncc2F)cc1` [III-37, N2-(3-aminosulfonyl-4-methyl)phenyl-N4-(4-ethylcarbonylaminomethyl)phenyl-5-fluoro-2,4-pyrimidinediamine], the IC50 in assay [1] (setting [5]) was 0.3 µM; in assay [2] (setting [6]), 0.834 µM.
On to “N2-(3-Aminocarbonyl-5-methylphenyl)-5-fluoro-N2-[4-(1H-pyrazol-5-yl)amidophenyl)-2,4-pyrimidinediamine [II-22]”, for which the figures for the IC50 (in assay [1] (setting [5]); with Primary human T-cells (setting [8])) were 0.858 µM and 7.49 µM, respectively.
“N2-(3-Aminosulfonyl-4-chlorophenyl)-N4-(4-benzylphenyl)-5-fluoro-2,4-pyrimidinediamine [III-64]”: the IC50 in assay [1] (setting [5]) worked out at 0.447 µM; in the assay on Primary human T-cells (setting [8]), 5.96 µM.
Consider “N2-(3-Aminosulfonyl-4-methoxy-5-methylphenyl)-5-fluoro-N4-(4-trifluoromethylphenyl)-2,4-pyrimidinediamine [VI-34]”, for which the IC50 in assay [1] (setting [7]) is 0.157 µM; in the assay with Primary human T-cells (setting [9]), 0.839 µM.
With “N2-(3-Aminosulfonyl-4-methoxy-5-methylphenyl)-N4-(4-benzylphenyl)-5-fluoro-2,4-pyrimidinediamine [III-65]”, the IC50 in assay [1] (setting [5]) amounted to 0.209 µM; in the assay with Primary human T-cells (setting [8]) it was 0.936 µM.
With “N2-(3-Aminosulfonyl-4-methoxy-5-methylphenyl)-N4-(4-chloro-3-trifluoromethyl-phenyl)-5-fluoro-2,4-pyrimidinediamine [VI-40]”, the IC50 was 0.288 µM in assay [1] (setting [7]) and 1.24 µM in the assay with Primary human T-cells (setting [9]).
Take “N2-(3-Aminosulfonyl-4-methylphenyl)-N4-(4-benzylphenyl)-5-fluoro-2,4-pyrimidinediamine [III-63]”: the IC50 amounted to 0.315 µM in assay [1] (setting [5]) and 1.88 µM with Primary human T-cells (setting [8]).
For the compound “N2-(3-Aminosulfonyl-4-methylphenyl)-N4-(4-ethylaminocarbonylaminomethylphenyl)-5-fluoro-2,4-pyrimidinedia [III-121]”, the results for the IC50 (in assay [1] (setting [7]); in the assay with Primary human T-cells (setting [9])) were 0.575 µM and 1.02 µM, respectively.
The like results for “N2-(3-Aminosulfonylphenyl)-N4-(4-chloro-3-trifluoromethylphenyl)-5-fluoro-2,4-pyrimidinediamine [VI-38]” were, in that order, 0.414 µM and 2.07 µM.
Take “N4-(4-Acetylthiomethylcarbonylphenyl)-N2-(3-aminosulfonyl-4-methylphenyl)-5-fluoro-2,4-pyrimidinediamine [IX-43]”: the IC50 worked out at 0.523 µM in assay [1] (setting [7]) and 2.8 µM in the assay on Primary human T-cells (setting [9]).
The like results for “N4-(4-Acetylthiomethylcarbonylphenyl)-N2-(3-aminosulfonylphenyl)-5-fluoro-2,4-pyrimidinediamine [IX-42]” were, in that order, 0.292 µM and 2.17 µM.
On to “N4-(4-Acetylthiomethylcarbonylphenyl)-N2-(4-aminosulfonylphenyl)-5-fluoro-2,4-pyrimidinediamine [IX-41]”, for which the IC50 came out at 0.133 µM in assay [1] (setting [7]) and 6.26 µM in the assay with Primary human T-cells (setting [9]).
